This is an account of results in PubChem BioAssay (NCI).

Among the test systems are ACHN renal; SF-295 CNS; SNB-19 CNS; SN12C renal; MOLT-4 leukemia; COLO 205 colon; UO-31 renal; HCT-116 colon; M14 melanoma; BT-549 breast.
Common to all, as to experiment: NCI-60 cell line screen, 48 h

SMILES strings stand for the structures.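 Each compound was tested at five concentrations against cells in 96-well plates for 48 hours. The concentration for full growth arrest is given as TGI.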

On to `O=[N+]([O-])c1ccc2nc(Nc3ccccc3)c(Nc3ccccc3)nc2c1`, for which the TGI was 3.11 µM in the assay on ACHN renal; 2.4 µM in the assay on SF-295 CNS; 7.7 µM in the assay with SNB-19 CNS; 2.67 µM in the assay on SN12C renal; greater than 100 µM in the assay with MOLT-4 leukemia; 2.97 µM in the assay on COLO 205 colon. Moreover, the TGI came to 2.57 µM in the assay on UO-31 renal and 1.82 µM with HCT-116 colon.
For the compound `CC(N)/C(N)=N/O` (centres undefined), the TGI with ACHN renal, with SF-295 CNS, in the assay with SNB-19 CNS, in the assay with SN12C renal, in the assay on M14 melanoma and in the assay on COLO 205 colon was greater than 100 µM in each case. Further, the TGI with BT-549 breast, with UO-31 renal and in the assay on HCT-116 colon was greater than 100 µM in each case.
In the case of `NC(Cc1ccccc1)C(=O)NC(Cc1ccccc1)NC(=O)C(Cc1c[nH]c2ccccc12)C(=O)O` (centres undefined), the TGI in the assay with ACHN renal, with SF-295 CNS, in the assay with SNB-19 CNS, with SN12C renal, in the assay on M14 melanoma and in the assay on COLO 205 colon was greater than 100 µM in each case. The TGI with UO-31 renal and in the assay on HCT-116 colon was greater than 100 µM in each case.
For the compound `Cc1ccc(-[n+]2cc([O-])on2)cc1`, the TGI with ACHN renal, with SF-295 CNS, in the assay with SNB-19 CNS, with SN12C renal, with MOLT-4 leukemia and in the assay on M14 melanoma was greater than 100 µM in each case. Also, the TGI in the assay on BT-549 breast, with UO-31 renal and with HCT-116 colon was greater than 100 µM in each case.
As to `CCOC(=O)CCCSCCCC(=O)CCCSCCCC(=O)OCC`, the TGI in the assay on SF-295 CNS, in the assay on SNB-19 CNS, in the assay with SN12C renal, in the assay with MOLT-4 leukemia, with M14 melanoma and in the assay on COLO 205 colon was greater than 100 µM each time. The TGI with BT-549 breast, with UO-31 renal and with HCT-116 colon was greater than 100 µM in each case.
Consider `O=S(=O)(O)c1cc(N=Nc2c(O)ccc3ccccc23)cc2c(S(=O)(=O)O)cccc12`, for which the TGI in the assay with ACHN renal, in the assay with SF-295 CNS, in the assay with SNB-19 CNS, with MOLT-4 leukemia, in the assay on M14 melanoma and in the assay on COLO 205 colon was greater than 100 µM throughout. Moreover, the TGI with BT-549 breast, in the assay on UO-31 renal and in the assay with HCT-116 colon was greater than 100 µM in each case.
On to `CON(C)C(=O)C(C)N(Cc1ccccc1)Cc1ccccc1` (centres undefined), for which the TGI in the assay with ACHN renal, with SF-295 CNS, with SNB-19 CNS, with MOLT-4 leukemia, in the assay on M14 melanoma and with BT-549 breast was greater than 100 µM in each case. Besides, the TGI in the assay with UO-31 renal and in the assay on HCT-116 colon was greater than 100 µM throughout.
With `COc1ccccc1CC(=O)C(O)(C(F)(F)F)C(F)(F)F`, the TGI in the assay with ACHN renal, in the assay with SF-295 CNS, in the assay with SNB-19 CNS, with SN12C renal, in the assay on MOLT-4 leukemia and in the assay with M14 melanoma was greater than 100 µM each time. Besides, the TGI with COLO 205 colon, in the assay with UO-31 renal and in the assay with HCT-116 colon was greater than 100 µM in each case.
For the compound `Cc1cn(C2OC(CO[Si](C)(C)C(C)(C)C)C(N(C)O[Si](C)(C)C(C)(C)C)C2[Se]c2ccccc2)c(=O)[nH]c1=O` (centres undefined), the TGI in the assay on ACHN renal is 18.3 µM; in the assay on SF-295 CNS, 26 µM; in the assay on SNB-19 CNS, 32.2 µM; in the assay on SN12C renal, greater than 100 µM; in the assay on MOLT-4 leukemia, greater than 100 µM; in the assay with M14 melanoma, 50.8 µM. The TGI in the assay on COLO 205 colon is greater than 100 µM; in the assay with UO-31 renal, 13.7 µM; in the assay with HCT-116 colon, 19.9 µM.
`O=c1[nH]c(=O)c2c3n(cc2[nH]1)CCCCC3`: the TGI with ACHN renal, in the assay on SF-295 CNS, in the assay on SNB-19 CNS, with SN12C renal, in the assay on MOLT-4 leukemia and in the assay with M14 melanoma was greater than 100 µM throughout. The TGI in the assay with COLO 205 colon, in the assay with UO-31 renal and with HCT-116 colon was greater than 100 µM each time.
As to `Cc1ccc(Nc2nc(NNC(=O)Cc3ccccc3)nc(NNC(=O)c3ccncc3)n2)cc1`, the TGI in the assay on SN12C renal, in the assay on MOLT-4 leukemia, with M14 melanoma, in the assay on COLO 205 colon, in the assay with BT-549 breast and in the assay with UO-31 renal was greater than 10 µM each time.
As for `C=C1C(=O)O[C@@H]2/C=C(C)/C=C\[C@@H]3O[C@@]3(C)C[C@@H](O)C12` (some centres undefined), the TGI in the assay on ACHN renal is 18.3 µM; in the assay on SF-295 CNS, greater than 100 µM; in the assay on SNB-19 CNS, 42.5 µM; in the assay on SN12C renal it was 30.4 µM; in the assay with MOLT-4 leukemia, 30.1 µM; with M14 melanoma it was 49.2 µM. Further, the TGI in the assay on COLO 205 colon is 21.1 µM; with UO-31 renal, 30.1 µM; in the assay on HCT-116 colon, 20.6 µM.
Take `N#Cc1nc(-c2cnccn2)oc1N`: the TGI in the assay with ACHN renal, in the assay with SNB-19 CNS, with SN12C renal, in the assay on MOLT-4 leukemia, in the assay on M14 melanoma and with UO-31 renal was greater than 100 µM each time. For the same compound, the TGI with HCT-116 colon is greater than 100 µM.
As for `COC(=O)c1cccc(C)c1C1CN=NC12Cc1cc(C)cc(C)c1C2=O` (centres undefined), the TGI is greater than 100 µM in the assay with ACHN renal; greater than 100 µM in the assay on SNB-19 CNS; greater than 100 µM in the assay on SN12C renal; 74.9 µM in the assay with MOLT-4 leukemia; 93.6 µM with M14 melanoma; greater than 100 µM in the assay with UO-31 renal. In the assay with HCT-116 colon, the TGI was 66.5 µM.
For the compound `CC1(C)[C@@H](Cn2cc(I)c(=O)[nH]c2=O)CC[C@@]1(C)CO`, the TGI in the assay on ACHN renal, with SF-295 CNS, in the assay with SNB-19 CNS, in the assay with SN12C renal, in the assay on M14 melanoma and in the assay on COLO 205 colon was greater than 100 µM throughout. For the same compound, the TGI with UO-31 renal and with HCT-116 colon was greater than 100 µM each time.
